Literature values as cited in PMC3320885 (PLoS ONE, 2012).

Columns and labels:
[1] = test system: receptor tyrosine kinase Kit; set-up: method as in PMID 12543790, PMID 17114238
[2] = test system: receptor tyrosine kinase PDGFR; set-up: method as in PMID 12543790, PMID 17114238

SMILES: COc1cc(Nc2c(C#N)cnc3cc(OCCCN4CCN(C)CC4)c(OC)cc23)c(Cl)cc1Cl [bosutinib]
- effect of T315I mutation (BCR-Abl T315I mutant): confer resistance
- activity against Kit [1]: devoid of activity
- effect of V299L mutation (BCR-Abl V299L mutant): confer resistance
- activity against PDGFR [2]: devoid of activity
- effect of Q252H mutation on inhibition (BCR-Abl Q252H mutant): not affected
- effect of Y253F mutation on inhibition (BCR-Abl Y253F mutant): not affected
